Measurements taken from a melting point compilation (Tetko et al.; mined from patent text by program, amines drawn as free bases though some values may be those of a salt).

**Q.** For `NC1CCN(c2ccc3c4c(cccc24)C(=O)N(O)C3=O)C1` (configuration not stated), which melting point is on record?
**A.** 238 to 242 °C

**Q.** With `CC(C)C(=O)N(Cc1ccccc1)c1nnn(Cc2ccccc2)n1` as the compound, how does the melting point read?
**A.** 68 °C

**Q.** Which melting point does the source give for `COc1ccccc1OC1CCN(c2nc(-c3ccccc3)nc3ccccc23)C1` (configuration not stated) here?
**A.** 142 to 144 °C

**Q.** With `O=C(O)CCc1cnoc1-c1cc(Cl)cc(Cl)c1` as the compound, how does the melting point read?
**A.** 143 to 144 °C

**Q.** Which melting point does the source give for `NC(=S)c1[nH]c2ccc(Cl)cc2c1S(=O)(=O)c1ccccc1` here?
**A.** 207 to 210 °C

**Q.** Which melting point does the source give for `CC(C)(C)c1cc(N)n(-c2ccccc2)n1` here?
**A.** 65 to 67 °C

**Q.** For `N#CCc1ccc(Nc2nc(OCC3CCCCC3)c3[nH]cnc3n2)cc1`, which melting point is on record?
**A.** 191 to 192 °C

**Q.** Which melting point does the source give for `COC(=O)c1ccc(CSc2nnc(-c3ccc4c(c3)CCO4)o2)cc1` here?
**A.** 125 to 126 °C

**Q.** For `CC(C(=O)NCCN(C)C)n1c(-c2ccc(Cl)cc2)nc2cccnc21` (configuration not stated), which melting point is on record?
**A.** 130 to 133 °C

**Q.** Which melting point does the source give for `C=CCc1ccccc1OCC(O)CNC1CCc2ccccc2C1` (configuration not stated) here?
**A.** 70 to 72 °C

**Q.** For `CCCC12CCC(CC(=O)O)(CC1)CC2`, which melting point is on record?
**A.** 85 °C

**Q.** With `Cc1nc(N2CCN(Cc3ccc(Cl)cc3)C2=O)sc1C(=O)NCc1cccnc1` as the compound, how does the melting point read?
**A.** 178 to 179 °C

**Q.** With `CNC(=O)Nc1snc(N2CCCC2)c1C#N` as the compound, how does the melting point read?
**A.** 239 °C

**Q.** For `CN(C(=O)COc1onc(C(F)(F)F)c1-c1ccccc1)c1ccccc1`, which melting point is on record?
**A.** 93 to 94 °C

**Q.** Which melting point does the source give for `CCCCc1ccc(NC(=O)c2ccc([N+](=O)[O-])cc2)cc1` here?
**A.** 151 to 152 °C

**Q.** Which melting point does the source give for `Oc1ccc([C@H]2c3ccc(OCc4ccccc4)cc3OC[C@H]2c2ccccc2)cc1` (racemic) here?
**A.** 204 to 205 °C

**Q.** Which melting point does the source give for `COc1ccc(C(=O)N(C(=O)c2ccc(OC)cc2)c2nc3ccc(N4CCN(C)CC4)cc3c(NCc3ccccc3)c2C#N)cc1` here?
**A.** 176 °C

**Q.** With `CC(O)Cn1c(COC(N)=O)nc(C(C)C)c1Sc1cc(Cl)cc(Cl)c1` (configuration not stated) as the compound, how does the melting point read?
**A.** 82 °C

**Q.** For `CCN(CC)C(=O)c1ccc[nH]1`, which melting point is on record?
**A.** 78.6 to 79.9 °C

**Q.** Which melting point does the source give for `CCCC1CC(O)c2cc(S(N)(=O)=O)sc2S1` (configuration not stated) here?
**A.** 156 to 157 °C

**Q.** Which melting point does the source give for `CCCOc1ccc(/C=C/c2nc3c([nH]2)c(=O)n(CC)c(=O)n3CC)cc1` here?
**A.** > 270 °C

**Q.** For `CCN(CC)CCCNc1nc2ccccc2n(-c2ccc(Cl)cc2)c1=O`, which melting point is on record?
**A.** 123 to 124 °C

**Q.** Which melting point does the source give for `CCOC(=O)C1=C(C)NC(C)=C(C(=O)OCC)C1c1csc2ccc(Br)cc12` here?
**A.** 68 to 70 °C

**Q.** For `Oc1ccc(C(c2ccc(O)cc2)c2ccccc2CN2CCCc3ccccc32)cc1`, which melting point is on record?
**A.** 160 to 163 °C

**Q.** Which melting point does the source give for `CSc1cnc(NC2=NCC3(CN4CCC3CC4)O2)cn1` (configuration not stated) here?
**A.** 155 to 160 °C

**Q.** For `COC1(Cl)C=C(F)C=C(C=O)C1` (configuration not stated), which melting point is on record?
**A.** 59 to 61 °C

**Q.** With `COc1ccc(S(=O)(=O)N(Cc2ccccc2)[C@H](CC(C)C)C(=O)NO)cc1` as the compound, how does the melting point read?
**A.** 48 to 52 °C

**Q.** Which melting point does the source give for `CCOCCn1cc2c(C3C(=O)Nc4ccc(Br)cc43)nc(NCCN(C)C)nc2n1` (configuration not stated) here?
**A.** 247 to 251 °C

**Q.** With `CN1CCC(c2c[nH]c3ccc(N)cc23)C(F)C1` (configuration not stated) as the compound, how does the melting point read?
**A.** 105 to 107 °C

**Q.** For `CCc1cc(C(=O)OC)nn1C`, which melting point is on record?
**A.** 188 to 191 °C

**Q.** Which melting point does the source give for `Oc1ccc(O)c(O)c1O` here?
**A.** 162 to 164 °C

**Q.** Which melting point does the source give for `CN1CCN(c2cc(Cl)cc3[nH]c(=O)n(Cc4ccccc4)c(=O)c23)CC1` here?
**A.** 208 to 210 °C

**Q.** Which melting point does the source give for `Cc1cc(-n2cnn(Cc3ccccc3)c2=O)sc1C(=O)NCc1cccnc1` here?
**A.** 180 to 181 °C

**Q.** With `O=S(=O)(NCc1ccnc2ccccc12)c1ccc(-c2cc(Cl)ccc2Cl)cc1` as the compound, how does the melting point read?
**A.** 124 °C

**Q.** Which melting point does the source give for `Cn1ncc(N(CCCO)Cc2ccccc2)c(Cl)c1=O` here?
**A.** 94 to 95 °C

**Q.** For `CCc1noc(-c2cccc3c2C(=O)N(C)Cc2c(-c4nc(CC)no4)ncn2-3)n1`, which melting point is on record?
**A.** 173 to 174 °C

**Q.** Which melting point does the source give for `O=C(Nc1ccccc1)Nc1ccc(Cc2ccc(NC3=NCCN3)cc2)cc1` here?
**A.** 167 to 170 °C

**Q.** Which melting point does the source give for `O=C1CCCc2ccc([N+](=O)[O-])cc21` here?
**A.** 104 to 105 °C

**Q.** For `CC(=O)OCCCc1cccc(-c2nc(=O)c3ccccc3s2)n1`, which melting point is on record?
**A.** 141 to 142 °C

**Q.** Which melting point does the source give for `O=C1NC(=O)c2ccccc2/C1=C/Nc1ccc2ncccc2c1` here?
**A.** 277 to 278 °C

**Q.** For `FC(F)C(F)(F)Oc1cccc(Nc2nccc(-c3cccc(OC(F)(F)F)c3)n2)c1`, which melting point is on record?
**A.** 98 to 100 °C

**Q.** Which melting point does the source give for `Cc1nc2cc(-c3ccc4c(c3)C=C(C(=O)Nc3ccc(CN(C)C5CCOCC5)cc3)CCS4(=O)=O)ccc2o1` here?
**A.** 236 to 240 °C

**Q.** With `CCCCN1C(=O)c2c(ncn2C)N2CCN=C12` as the compound, how does the melting point read?
**A.** 122 to 124 °C

**Q.** Which melting point does the source give for `CC(C)(C)OC(=O)Cn1cc(Cl)c(-c2cc(Cl)cc(Cl)c2)n1` here?
**A.** 86 °C

**Q.** For `CNc1nc(-c2cccc(NC(=O)c3ccccc3OCc3ccccc3)c2)c2cc(OC)c(OC)cc2n1`, which melting point is on record?
**A.** 192 to 194 °C

**Q.** Which melting point does the source give for `CC(=O)N1c2ccccc2-c2c([N+](=O)[O-])cnn2C1c1ccccc1` (configuration not stated) here?
**A.** 156 to 157 °C

**Q.** For `COc1ccc([C@@H]2Sc3cc(Oc4ccc(F)cc4)ccc3NC(=O)[C@@H]2O)cc1`, which melting point is on record?
**A.** 198 to 200 °C

**Q.** For `Cc1cc(C)nc(NCC#N)c1`, which melting point is on record?
**A.** 92 to 93 °C

**Q.** For `O=C(Nc1ccc(F)cc1)c1cccc([N+](=O)[O-])c1`, which melting point is on record?
**A.** 167 to 168 °C

**Q.** With `CCCCCCCCCCCCCCCCCC[N+](=O)[O-]` as the compound, how does the melting point read?
**A.** 47 to 50 °C

**Q.** Which melting point does the source give for `CC1CC(=O)NN=C1c1ccc2c(c1)N(C1CCCC1)C(=O)C(C)O2` (configuration not stated) here?
**A.** 220 to 223 °C

**Q.** Which melting point does the source give for `Nc1sc2c(c1C(=O)c1ccc(F)cc1)CCN(C(=O)OCc1ccccc1)C2` here?
**A.** 90 to 92 °C
